Where a name gives a salt, the structure may show the parent alone. Read-outs that look alike come from different tables or passages of the source.
Biological target: T1, hNaV1.7 (Homo sapiens, UniProt Q15858)
T1 construct: expressed in transfected cells; host or cells: HEK293
Test: QPatch NaV1.7 assay (whole-cell patch clamp, QPatch16x)
Format: cell-based
Details: HEK293-hNaV1.7 cells
Procedure: The compounds of the invention were tested in a QPatch NaV1.7 assay.
HEK293-hNaV1.7 cells were grown in DMEM-F12+10% FBS culture media at 37° C. At a confluency of 50-70% cells were dissociated from culture flasks & triturated to ensure unicellular cell suspension; cell density was measured & adjusted to 2-3×10^6 cells/ml. Recordings were obtained using QPatch16x. The external solution was (in mM): NaCl, 128; KCl, 5; MgCl2, 2; CaCl2, 2; Glucose, 30; HEPES, 15; pH 7.3, 305-315 mOsm. Following seal formation and whole-cell access using internal solution (containing in mM: CsF, 135; EGTA/CsOH, 1/5; HEPES 10; NaCl, 10; pH 7.3, 310-320 mOsM), voltage pulse protocols were applied. Initially a steady state inactivation voltage protocol was used to determine the half-maximal voltage for steady state inactivation (V1/2 SSI). Two holding voltages were used to determine test drug inhibition: −90 mV, where most of the channels are in a closed state; and V1/2 SSI, where half of the channels are inactivated. Currents were elicited […] by stepping to a membrane potential of 0 mV for 20 ms. Four-point cumulative concentration responses were derived by determining the peak current amplitude at each concentration of test drug over 120 second application. Curves were fitted with the Hill equation yielding pIC50 values at −90 mV and V1/2 SSI holding potentials.

[1] = holding voltage V1/2 SSI (half of channels inactivated), read-out: QP Nav1.7 SSI vhalf pIC50 (converted)
[2] = holding voltage −90 mV (most channels closed), read-out: QP Nav1.7 −90 mV pIC50 (converted)

T1 sequence (Q15858 whole entry): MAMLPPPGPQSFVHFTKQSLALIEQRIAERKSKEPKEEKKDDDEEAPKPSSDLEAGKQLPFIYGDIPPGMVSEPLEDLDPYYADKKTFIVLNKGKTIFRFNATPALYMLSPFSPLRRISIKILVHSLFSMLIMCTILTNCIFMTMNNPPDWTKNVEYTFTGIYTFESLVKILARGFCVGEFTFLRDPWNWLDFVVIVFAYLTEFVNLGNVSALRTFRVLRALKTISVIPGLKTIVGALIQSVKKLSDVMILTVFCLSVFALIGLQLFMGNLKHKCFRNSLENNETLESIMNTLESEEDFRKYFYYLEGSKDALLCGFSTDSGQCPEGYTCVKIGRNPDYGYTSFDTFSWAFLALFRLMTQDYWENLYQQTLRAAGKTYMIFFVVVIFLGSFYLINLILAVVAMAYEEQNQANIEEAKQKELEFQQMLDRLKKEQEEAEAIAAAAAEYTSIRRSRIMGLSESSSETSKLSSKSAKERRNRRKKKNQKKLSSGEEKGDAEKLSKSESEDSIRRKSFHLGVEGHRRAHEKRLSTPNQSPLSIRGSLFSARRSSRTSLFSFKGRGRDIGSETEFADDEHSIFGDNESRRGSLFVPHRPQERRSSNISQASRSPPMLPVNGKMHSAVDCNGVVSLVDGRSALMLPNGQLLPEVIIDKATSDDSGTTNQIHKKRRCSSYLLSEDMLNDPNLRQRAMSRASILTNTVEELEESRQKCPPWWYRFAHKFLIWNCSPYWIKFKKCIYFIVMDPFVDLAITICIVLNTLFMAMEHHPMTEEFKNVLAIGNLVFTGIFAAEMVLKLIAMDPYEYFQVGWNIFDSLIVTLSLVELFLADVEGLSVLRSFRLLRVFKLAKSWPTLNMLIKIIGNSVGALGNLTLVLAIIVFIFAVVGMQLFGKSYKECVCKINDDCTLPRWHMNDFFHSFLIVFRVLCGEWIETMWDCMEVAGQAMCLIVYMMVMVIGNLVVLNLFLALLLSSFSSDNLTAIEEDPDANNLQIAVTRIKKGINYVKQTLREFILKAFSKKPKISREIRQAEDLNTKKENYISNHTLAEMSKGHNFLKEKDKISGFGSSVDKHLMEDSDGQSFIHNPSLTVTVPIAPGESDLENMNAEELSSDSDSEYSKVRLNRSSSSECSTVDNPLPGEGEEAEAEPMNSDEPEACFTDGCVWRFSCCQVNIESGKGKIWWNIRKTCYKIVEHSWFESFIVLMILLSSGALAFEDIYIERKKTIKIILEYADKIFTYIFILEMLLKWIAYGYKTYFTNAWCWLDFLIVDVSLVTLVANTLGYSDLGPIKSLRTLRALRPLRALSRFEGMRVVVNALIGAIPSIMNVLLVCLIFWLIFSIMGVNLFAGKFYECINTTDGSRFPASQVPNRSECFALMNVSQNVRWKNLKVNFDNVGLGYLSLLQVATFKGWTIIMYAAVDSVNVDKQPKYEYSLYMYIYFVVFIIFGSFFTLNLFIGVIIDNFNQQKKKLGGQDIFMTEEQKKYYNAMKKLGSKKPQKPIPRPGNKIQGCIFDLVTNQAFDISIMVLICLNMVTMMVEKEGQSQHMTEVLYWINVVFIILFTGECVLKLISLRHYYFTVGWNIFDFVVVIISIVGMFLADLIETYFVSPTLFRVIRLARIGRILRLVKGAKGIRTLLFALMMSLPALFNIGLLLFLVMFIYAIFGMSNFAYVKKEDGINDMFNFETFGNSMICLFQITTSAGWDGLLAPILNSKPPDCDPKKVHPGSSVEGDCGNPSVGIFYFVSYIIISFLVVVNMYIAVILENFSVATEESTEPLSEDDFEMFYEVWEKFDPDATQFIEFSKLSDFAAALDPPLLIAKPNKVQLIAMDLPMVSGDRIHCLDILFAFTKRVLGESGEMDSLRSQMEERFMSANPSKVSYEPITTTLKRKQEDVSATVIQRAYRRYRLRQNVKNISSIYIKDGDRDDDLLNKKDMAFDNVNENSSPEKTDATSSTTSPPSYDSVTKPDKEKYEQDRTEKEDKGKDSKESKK

| Structure (SMILES) | IC50 [1] [µM] | IC50 [2] [µM] | QP Nav1.7 SSI vhalf pIC50 (holding voltage V1/2 SSI (half of channels inactivated)) |
| --- | --- | --- | --- |
| CCOc1ccc(F)c(-c2cc(C)nc(C3CCC4(CCN(C)C4=O)N3)c2C)c1 (mixture of isomers) [Example 256, 2-[4-(5-Ethoxy-2-fluoro-phenyl)-3,6-dimethyl-2-pyridyl]-7-methyl-1,7-diazaspiro[4.4]nonan-6-one hydrochloride] | 2.51 | 20 |  |
| CN1CC[C@@]2(CC(F)C(c3cc(-c4ccc(C(F)(F)F)cc4)ccn3)N2)C1=O (single isomer, unassigned) [Example 238, hydrochloride] | 2 | 50.1 |  |
| CCOc1ccc(F)c(-c2cc(OC)nc([C@H]3CC[C@]4(CCN(C)C4=O)N3)c2)c1 (single isomer, unassigned) [Example 247, hydrochloride] | 1.26 | 20 |  |
| CCOc1ccc(F)c(-c2cc(OC)nc([C@@H]3CC[C@]4(CCN(C)C4=O)N3)c2)c1 (single isomer, unassigned) [Example 248] | 5.01 | 31.6 |  |
| CN1CC[C@@]2(CC[C@H](c3cc(-c4cccc(OC(F)(F)F)c4)ccn3)N2)C1=O.Cl [Example 1, (2R,5S)-7-Methyl-2-[4-[3-(trifluoromethoxy)phenyl]-2-pyridyl]-1,7-diazaspiro[4.4]nonan-6-one hydrochloride] |  |  | 5.5 |
| Cc1cc(C)c(-c2ccnc([C@H]3CC[C@@]4(CCN(C)C4=O)N3)c2)c(C)c1 [Example 2, (2R,5S)-7-Methyl-2-[4-(2,4,6-trimethylphenyl)-2-pyridyl]-1,7-diazaspiro-[4.4]nonan-6-one hydrochloride] | 20 | 200 |  |
| CCOc1ccc(F)cc1-c1ccnc([C@H]2CC[C@@]3(CCN(C)C3=O)N2)c1 [Example 4, (2R,5S)-2-[4-(2-Ethoxy-5-fluoro-phenyl)-pyridin-2-yl]-7-methyl-1,7-diaza-spiro[4.4]nonan-6-one hydrochloride] | 12.6 | 200 |  |
| CN1CC[C@@]2(CC[C@H](c3cc(-c4ccc(OC(F)(F)F)cc4)ccn3)N2)C1=O [Example 5, (2R,5S)-7-Methyl-2-[4-(4-trifluoro-methoxy-phenyl)-pyridin-2-yl]-1,7-diaza-spiro[4.4]nonan-6-one hydrochloride] | 3.98 | 25.1 |  |
| CN1CC[C@@]2(CC[C@H](c3cc(-c4ccccc4)ccn3)N2)C1=O [Example 6, (2R,5S)-7-Methyl-2-(4-phenyl-pyridin-2-yl)-1,7-diaza-spiro[4.4]nonan-6-one hydrochloride] | 31.6 | 158 |  |
| CN1CC[C@@]2(CC[C@H](c3cc(-c4ccccc4C(F)(F)F)ccn3)N2)C1=O [Example 7, (2R,5S)-7-Methyl-2-[4-[2-(trifluoro-methyl)phenyl]-2-pyridyl]-1,7-diazaspiro[4.4]nonan-6-one hydrochloride] | 31.6 | 100 |  |
| CCOc1ccc(F)c(-c2ccnc([C@H]3CC[C@@]4(CCN(C)C4=O)N3)c2)c1 [Example 8, (2R,5S)-2-[4-(5-Ethoxy-2-fluoro-phenyl)-2-pyridyl]-7-methyl-1,7-diazaspiro[4.4]nonan-6-one hydrochloride] | 0.794 | 10 |  |
| COc1ccc(F)cc1-c1ccnc([C@H]2CC[C@@]3(CCN(C)C3=O)N2)c1 [Example 10, (2R,5S)-2-[4-(5-Fluoro-2-methoxy-phenyl)-2-pyridyl]-7-methyl-1,7-diazaspiro[4.4]nonan-6-one hydrochloride] | 50.1 | 3980 |  |
| CN1CC[C@@]2(CC[C@H](c3cc(-c4ccc(F)c(F)c4)ccn3)N2)C1=O [Example 11, (2R,5S)-2-[4-(3,4-Difluorophenyl)-2-pyridyl]-7-methyl-1,7-diazaspiro[4.4]nonan-6-one hydrochloride] | 25.1 | 200 |  |
| CN1CC[C@@]2(CC[C@H](c3cc(-c4ccc(Cl)cc4)ccn3)N2)C1=O [Example 13, (2R,5S)-2-[4-(4-Chlorophenyl)-2-pyridyl]-7-methyl-1,7-diazaspiro[4.4]nonan-6-one hydrochloride] | 6.31 | 25.1 |  |
| Cc1c(-c2ccc(C(F)(F)F)cc2)ccnc1[C@H]1CC[C@]2(CCN(C)C2=O)N1 [Example 14, (2R,5R)-7-Methyl-2-[3-methyl-4-[4-(trifluoromethyl)phenyl]-2-pyridyl]-1,7-diazaspiro[4.4]nonan-6-one hydrochloride] | 10 | 63.1 |  |
| Cc1c(-c2ccc(C(F)(F)F)cc2)ccnc1[C@@H]1CC[C@]2(CCN(C)C2=O)N1 [Example 15, (2S,5R)-7-Methyl-2-[3-methyl-4-[4-(trifluoromethyl)phenyl]-2-pyridyl]-1,7-diazaspiro[4.4]nonan-6-one hydrochloride] | 6.31 | 25.1 |  |
| Cc1c(-c2ccc(C(F)(F)F)cc2)ccnc1[C@H]1CC[C@@]2(CCN(C)C2=O)N1 [Example 17, (2R,5S)-7-Methyl-2-[3-methyl-4-[4-(trifluoromethyl)phenyl]-2-pyridyl]-1,7-diazaspiro[4.4]nonan-6-one hydrochloride] | 3.16 | 20 |  |
| Cc1cc(-c2cc(C(F)(F)F)ccc2C#N)cc([C@@H]2CC[C@]3(CCN(C)C3=O)N2)n1 [Example 21, 2-[2-Methyl-6-[(2S,5R)-7-methyl-6-oxo-1,7-diazaspiro[4.4]-nonan-2-yl]-4-pyridyl]-4-(trifluoromethyl)-benzonitrile hydrochloride] | 31.6 | 794 |  |
| Cc1cc(-c2cc(C(F)(F)F)ccc2C#N)cc([C@H]2CC[C@]3(CCN(C)C3=O)N2)n1 [Example 22, 2-[2-Methyl-6-[(2R,5R)-7-methyl-6-oxo-1,7-diazaspiro[4.4]-nonan-2-yl]-4-pyridyl]-4-(trifluoromethyl)-benzonitrile hydrochloride] | 158 | 1000 |  |
| Cc1cc(-c2cc(C(F)(F)F)ccc2C#N)cc([C@H]2CC[C@@]3(CCN(C)C3=O)N2)n1 [Example 23, 2-[2-Methyl-6-[(2R,5S)-7-methyl-6-oxo-1,7-diazaspiro[4.4]nonan-2-yl]-4-pyridyl]-4-(trifluoromethyl)benzonitrile hydrochloride] | 79.4 | 631 |  |

Further lines, results first:

| IC50 [1] [µM] | IC50 [2] [µM] | QP Nav1.7 SSI vhalf pIC50 (holding voltage V1/2 SSI (half of channels inactivated)) | Structure (SMILES) |
| --- | --- | --- | --- |
| 1.58 | 31.6 |  | CN1CC[C@@]2(CC(F)(F)C(c3cc(-c4ccc(C(F)(F)F)cc4)ccn3)N2)C1=O (mixture of isomers) [Example 240, (5R)-3,3-Difluoro-7-methyl-2-[4-[4-(trifluoromethyl)phenyl]-2-pyridyl]-1,7-diazaspiro[4.4]nonan-6-one hydrochloride] |
| 15.8 | 251 |  | CN1CC[C@@]2(CC(F)C(c3cc(-c4ccc(C(F)(F)F)cc4)ccn3)N2)C1=O (single isomer, unassigned) [Example 239] |
| 7.94 | 63.1 |  | CN1CC[C@@]2(CC[C@H](c3cc(-c4ccccc4OC(F)(F)F)ccn3)N2)C1=O [Example 3, (2R,5S)-7-Methyl-2-[4-[2-(trifluoromethoxy)-phenyl]-2-pyridyl]-1,7-diazaspiro-[4.4]nonan-6-one hydrochloride] |
| 63.1 | 1000 |  | CN1CC[C@@]2(CC[C@H](c3cc(-c4ccc(F)cc4F)ccn3)N2)C1=O [Example 9, (2R,5S)-2-[4-(2,4-Difluorophenyl)-2-pyridyl]-7-methyl-1,7-diazaspiro[4.4]nonan-6-one hydrochloride] |
| 10 | 50.1 |  | CN1CC[C@@]2(CC[C@H](c3cc(-c4ccc(C(F)(F)F)cc4F)ccn3)N2)C1=O [Example 12, (2R,5S)-2-[4-[2-Fluoro-4-(trifluoromethyl)phenyl]-2-pyridyl]-7-methyl-1,7-diazaspiro[4.4]nonan-6-one hydrochloride] |
| 12.6 | 100 |  | Cc1c(-c2ccc(C(F)(F)F)cc2)ccnc1[C@@H]1CC[C@@]2(CCN(C)C2=O)N1 [Example 16, (2S,5S)-7-Methyl-2-[3-methyl-4-[4-(trifluoromethyl)phenyl]-2-pyridyl]-1,7-diazaspiro[4.4]nonan-6-one hydrochloride] |
| 31.6 | 794 |  | Cc1c(-c2ccc(F)cc2)ccnc1[C@@H]1CC[C@]2(CCN(C)C2=O)N1 [Example 18, (2S,5R)-7-Methyl-2-[3-methyl-4-[4-fluorophenyl]-2-pyridyl]-1,7-diazaspiro[4.4]nonan-6-one hydrochloride] |
| 6.31 | 50.1 |  | Cc1c(-c2ccc(F)cc2)ccnc1[C@H]1CC[C@@]2(CCN(C)C2=O)N1 [Example 19, (2R,5S)-2-[4-(4-Fluorophenyl)-3-methyl-2-pyridyl]-7-methyl-1,7-diazaspiro[4.4]nonan-6-one hydrochloride] |
| 31.6 | 316 |  | Cc1c(-c2ccc(F)cc2)ccnc1[C@@H]1CC[C@@]2(CCN(C)C2=O)N1 [Example 20, (2S,5S)-2-[4-(4-Fluorophenyl)-3-methyl-2-pyridyl]-7-methyl-1,7-diazaspiro[4.4]nonan-6-one hydrochloride] |
